# Experimental data: patent US8507483B2, “1H-pyrimidin-2-one derivatives, preparation thereof and pharmaceutical use thereof as inhibitors of AKT (PKB) phosphorylation” (Sanofi, priority 2009, dated 2013)
# System: AKT protein phosphorylated on serine 473 (P-AKT-S473) in PC3 human prostate carcinoma cells
# Assay: pAKT expression in PC3 cells measured by MSD Multi-spot Biomarker Detection (Test B)
# Assay type: cell-based
# Details: PC-3, inhibition of AKT Ser473 phosphorylation, 1 to 2 h incubation, MSD sandwich immunoassay, absolute IC50, mean of two experiments
# Experimental: The inhibitory activity of the molecules on AKT phosphorylation is measured either by western blotting using the technique described below, or by the MSD Multi-spot Biomarker detection technique from Meso Scale Discovery also described below.
# Where appropriate, the activity of the products is translated into approximately IC50, obtained from a dose-response curve of various concentrations tested and representing the dose giving 50% of specific inhibition (absolute IC50). Two independent experiments make it possible to calculate the mean of the IC50s. Study of pAKT expression in PC3 human prostate carcinoma cells measured by the MSD Multi-spot Biomarker Detection technique from Meso Scale Discovery (Test B): This test is based on measuring the expression of the AKT protein phosphorylated on serine 473 (P-AKT-S473), in the PC3 human prostate carcinoma line, by means of the technique based on a sandwich immunoassay using the MSD Multi-spot Biomarker Detection kit from Meso Scale Discovery: phospho-Akt (Ser473) whole cell lysate kit (#K151 CAD) or phospho-Akt (Ser473)/Total Akt whole cell lysate kit (#K151OOD).
# The primary antibody specific for P-AKT-5473 (Kit #K151 CAD) is coated onto an electrode in each well of the 96-well plates of the MSD kit: after the addition of a protein lysate to each well, the signal is visualised by adding a secondary detection antibody labelled with an electrochemoluminescent compound. The procedure followed is that described in the kit.
# On day 1, the PC3 cells are seeded into 96-well plates (TPP, #92096) at the concentration of 35 000 cells/well in 200 μl of DMEM medium (DMEM Gibco #11960-044) containing 10% of foetal calf serum (FCS Gibco, #10500-056) and 1% glutamine (L-Glu Gibco #25030-024), and incubated at 37° C., 5% CO2, overnight.
# On day 2, the cells are incubated in the presence or absence of the test products for 1 to 2 h at 37° C. in the presence of 5% of CO2. The molecules, diluted in dimethyl sulphoxide (DMSO Sigma #D2650), are added from a 20-times concentrated stock solution, the final percentage of DMSO being 0.1%. The molecules are tested either at a single concentration of less than or equal to 10 μM, or at increasing concentrations in a range that can extend from less than 1 nM to 10 μM.
# After this incubation, the cells are lysed for the preparation of the proteins. For this, after the culture medium has been drawn off, […] of complete Tris Lysis Buffer of the MSD kit containing the protease and phosphatase inhibitor solutions are added to the wells and the cells are lysed for 1 h at 4° C. with shaking At this stage, the plates containing the lysates can be frozen at −20° C. or at −80° C.
# The wells of the 96-well plates of the MSD kit are saturated for 1 h at ambient temperature with the blocking solution of the MSD kit. Four washes are carried out with 150 μl of Tris Wash Buffer of the MSD kit. The lysates previously prepared are transferred into the 96-well multi-spot plates of the MSD kit and incubated for 1 h at ambient temperature, with shaking Four washes are carried out with 150 μl of Tris Wash Buffer of the MSD kit. 25 μl of the MSD sulpho-tag detection antibody solution are added to the wells and incubated for 1 h at ambient temperature, with shaking Four washes are carried out with 150 μl of Tris Wash Buffer of the MSD kit. 150 μl of Read Buffer of the MSD kit are added to the wells and the plates are read immediately on the 512400 instrument from Meso Scale Discovery.
# The instrument measures a signal for each well. Wells without cells and containing the lysis buffer serve to determine the background noise that will be subtracted from all the measurements (min). The wells containing cells in the absence of product and in the presence of 0.1% DMSO are considered to be the 100% signal (max). The percentage inhibition is calculated for each concentration of test product according to the following formula: (1−((test−min)/(max−min)))×100. […]
row,IC50 [nM],SMILES
1,475,"COc1ccc2nc(Cc3nc(N4CCOCC4)cc(=O)[nH]3)[nH]c2c1 [Example 4, 2-[(6-methoxy-1H-benzimidazol-2-yl)methyl]-6-(morpholin-4-yl)pyrimidin-4(3H)-one]"
2,16,"Cn1c(Cc2nc(N3CCOCC3)cc(=O)[nH]2)nc2cc(F)ccc21 [Example 11, 2-[(5-fluoro-1-methyl-1H-benzimidazol-2-yl)methyl]-6-(morpholin-4-yl)pyrimidin-4(3H)-one]"
3,88,"O=c1cc(N2CCOCC2)nc(Cc2nc3cccc(F)c3o2)[nH]1 [Example 12, 2-[(7-fluoro-1,3-benzoxazol-2-yl)methyl]-6-(morpholin-4-yl)pyrimidin-4(3H)-one]"
4,187,"O=c1cc(N2CCOCC2)nc(Cc2nc3cc(F)c(F)cc3o2)[nH]1 [Example 16, 2-[(5,6-difluoro-1,3-benzoxazol-2-yl)methyl]-6-(morpholin-4-yl)pyrimidin-4(3H)-one]"
5,63,"O=c1cc(N2CCOCC2)nc(Cc2nc3ccc(Cl)cc3[nH]2)[nH]1 [Example 17, 2-[(6-chloro-1H-benzimidazol-2-yl)methyl]-6-(morpholin-4-yl)pyrimidin-4(3H)-one]"
6,28,"O=c1cc(N2CCOCC2)nc(Cc2nc3ccc(F)c(F)c3o2)[nH]1 [Example 22, 2-[(6,7-difluoro-1,3-benzoxazol-2-yl)methyl]-6-(morpholin-4-yl)pyrimidin-4(3H)-one]"
7,193,"O=c1cc(N2CCOCC2)nc(Cc2nc3cc(Cl)c(Cl)cc3[nH]2)[nH]1 [Example 23, 2-[(5,6-dichloro-1H-benzimidazol-2-yl)methyl]-6-(morpholin-4-yl)pyrimidin-4(3H)-one]"
8,140,"Cc1ccc2nc(Cc3nc(N4CCOCC4)cc(=O)[nH]3)[nH]c2c1 [Example 24, 2-[(6-methyl-1H-benzimidazol-2-yl)methyl]-6-(morpholin-4 yl)pyrimidin-4(3H)-one]"
9,3000,"O=c1cc(N2CCOCC2)nc(Cc2nc3c(Cl)cc(C(F)(F)F)cc3[nH]2)[nH]1 [Example 25, 2-{[4-chloro-6-(trifluoromethyl)-1H-benzimidazol-2-yl]methyl}-6-(morpholin-4-yl)pyrimidin-4(3H)-one]"
10,961,"O=c1cc(N2CCOCC2)nc(Cc2nc3ccc(C(F)(F)F)cc3[nH]2)[nH]1 [Example 26, 6-(morpholin-4-yl)-2-{[6-(trifluoromethyl)-1H-benzimidazol-2-yl]methyl}pyrimidine-4(3H)-one]"
11,256,"O=c1cc(N2CCOCC2)nc(Cc2nc3cc(F)c(Cl)cc3[nH]2)[nH]1 [Example 27, 2-[(5-chloro-6-fluoro-1H-benzimidazol-2-yl)methyl]-6-(morpholin-4-yl)pyrimidin-4(3H)-one]"
12,585,"O=c1cc(N2CCOCC2)nc(Cc2nc3c(F)c(F)ccc3[nH]2)[nH]1 [Example 28, 2-[(6,7-difluoro-1H-benzimidazol-2-yl)methyl]-6-(morpholin-4-yl)pyrimidine-4(3H)-one]"
13,506,"Cc1cc2nc(Cc3nc(N4CCOCC4)cc(=O)[nH]3)[nH]c2cc1Cl [Example 29, 2-[(5-chloro-6-methyl-1H-benzimidazol-2-yl)methyl]-6-(morpholin-4-yl)pyrimidin-4(3H)-one]"
14,144,"O=c1cc(N2CCOCC2)nc(Cc2nc3cc(F)cc(F)c3[nH]2)[nH]1 [Example 31, 2-[(5,7-difluoro-1H-benzimidazol-2-yl)methyl]-6-(morpholin-4-yl)pyrimidine-4(3H)-one]"
15,208,"O=c1cc(N2CCOCC2)nc(Cc2nc3cc(F)c(F)c(F)c3[nH]2)[nH]1 [Example 34, 6-(morphlolin-4-yl)-2-[(5,6,7-trifluoro-1H-benzimidazol-2-yl)methyl]pyrimidin-4(3H)-one]"
16,115,"O=c1cc(N2CCOCC2)nc(Cc2nc3c(Br)cc(F)cc3[nH]2)[nH]1 [Example 35, 2-[(4-bromo-6-fluoro-1H-benzimidazol-2-yl)methyl]-6-(morpholin-4-yl)pyrimidin-4(3H)-one]"
17,15,"Cn1c(Cc2nc(N3CCOCC3)cc(=O)[nH]2)nc2ccc(F)c(F)c21 [Example 37, 2-[(6,7-Difluoro-1-methyl-1H-benzimidazol-2-yl)methyl]-6-(morpholin-4-yl)pyrimidin-4(3H)-one]"

# The next lines start with the molecule.
row,SMILES,IC50 [nM]
1,"Cc1ccc2nc(Cc3nc(N4CCOCC4)cc(=O)[nH]3)oc2c1 [Example 8, 2-[(6-methyl-1,3-benzoxazol-2-yl)methyl]-6-(morpholin-4-yl)pyrimidin-4(3H)one]",143
2,"O=c1cc(N2CCOCC2)nc(Cc2nc3ccc(Br)cc3o2)[nH]1 [Example 9, 2-[(6-bromo-1,3-benzoxazol-2-yl)methyl]-6-(morpholin-4-yl)pyrimidin-4(3H)-one]",175
3,"O=c1cc(N2CCOCC2)nc(Cc2nc3ccccc3n2-c2ccccc2)[nH]1 [Example 13, 6-(morpholin-4-yl)-2-[(1-phenyl-1H-benzimidazol-2-yl)methyl]pyrimidin-4(3H)-one]",8
4,"O=c1cc(N2CCOCC2)nc(Cc2nc3ccccc3n2Cc2ccccc2)[nH]1 [Example 14, 2-[(1-benzyl-1H-benzimidazol-2-yl)methyl]-6-(morpholin-4-yl)pyrimidin-4(3H)-one]",105
5,"CCn1c(Cc2nc(N3CCOCC3)cc(=O)[nH]2)nc2ccccc21 [Example 15, 2-[(1-ethyl-1H-benzimidazol-2-yl)methyl]-6-(morpholin-4-yl)pyrimidin-4(3H)-one]",26
6,"COCCn1c(Cc2nc(N3CCOCC3)cc(=O)[nH]2)nc2cc(F)ccc21 [Example 19, 2-{[5-fluoro-1-(2-methoxyethyl)-1H-benzimidazol-2-yl]methyl}-6-(morpholin-4-yl)pyrimidin-4(3H)-one]",109
7,"O=c1cc(N2CCOCC2)nc(Cc2nc3ccc4ccccc4c3o2)[nH]1 [Example 20, 6-(morpholin-4-yl)-2-(naphtho[2,1-d][1,3]oxazol-2-ylmethyl)pyrimidin-4(3H)-one]",1000
8,"COc1ccc2nc(Cc3nc(N4CCOCC4)cc(=O)[nH]3)oc2c1 [Example 21, 2-[(6-methoxy-1,3-benzoxazol-2-yl)methyl]-6-(morpholin-4-yl)pyrimidin-4(3H)-one]",18
9,"N#CCn1c(Cc2nc(N3CCOCC3)cc(=O)[nH]2)nc2ccccc21 [Example 30, (2-{[4-(morpholin-4-yl)-6-oxo-1,6-dihydropyrimidin-2-yl]methyl}-1H-benzimidazol-1-yl)acetonitrile]",1340
10,"CC(c1ccccc1)n1c(Cc2nc(N3CCOCC3)cc(=O)[nH]2)nc2cc(Cl)ccc21 (stereo not drawn) [Example 32, 2-{[5-chloro-1-(1-phenylethyl)-1H-benzimidazol-2-yl]methyl}-6-(morpholin-4-yl)pyrimidine-4(3H)-one]",206
11,"O=c1cc(N2CCOCC2)nc(Cc2nc3ccccc3n2C2CCCCC2)[nH]1 [Example 33, 2-[(1-cyclohexyl-1H-benzimidazol-2-yl)methyl]-6-(morpholin-4-yl)pyrimidin-4(3H)-one]",142
12,"Cn1c(Cc2nc(N3CCOCC3)cc(=O)[nH]2)nc2ccc(Br)cc21 [Example 36, 2-[(6-Bromo-1-methyl-1H-benzimidazol-2-yl)methyl]-6-(morpholin-4-yl)pyrimidin-4(3H)-one]",28
13,"Cn1c(Cc2nc(N3CCOCC3)cc(=O)[nH]2)nc2cc(Cl)c(Cl)cc21 [Example 38, 2-[(5,6-Dichloro-1-methyl-1H-benzimidazol-2-yl)methyl]-6-(morpholin-4-yl)pyrimidin-4(3H)-one]",65
